Data taken from patent US9187472B2 (AbbVie Inc., priority 2012, dated 2015).

Tested on: PC3 cells
Test: NAMPT Cell Proliferation Assay
Format: cell-based
Settings: Homo sapiens, PC-3, 120 h, 5 days incubation, cell viability by Cell Titer Glo
Summary of the method: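 PC3 cells were plated at 500 cells/well in RPMI with 10% heat-inactivated FBS, left to attach overnight, then given compounds in 10-fold dilutions from 10 μM to 1×10^−5 μM. After 5 days at 37° C and 5% CO2, viability was read by luminescence and IC50s came from sigmoidal fits of percent inhibition.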

Row | Structure (SMILES) | IC50
1 | COc1cccc(CC(=O)N2CCC(c3ccc(NC(=O)NCc4ccn5ccnc5c4)cc3)CC2)c1 [Example 952, 1-(imidazo[1,2-a]pyridin-7-ylmethyl)-3-(4-{1-[(3-methoxyphenyl)acetyl]piperidin-4-yl}phenyl)urea] | 10.3 nM
2 | O=C(NCc1ccn2ccnc2c1)Nc1ccc(C2CCN(C(=O)c3cccc4c3CCC4=O)CC2)cc1 [Example 953, 1-(imidazo[1,2-a]pyridin-7-ylmethyl)-3-(4-{1-[(1-oxo-2,3-dihydro-1H-inden-4-yl)carbonyl]piperidin-4-yl}phenyl)urea] | 2.35 nM
3 | N#Cc1ccc(C(=O)N2CCC(c3ccc(NC(=O)NCc4ccn5ccnc5c4)cc3)CC2)c(Cl)c1 [Example 954, 1-{4-[1-(2-chloro-4-cyanobenzoyl)piperidin-4-yl]phenyl}-3-(imidazo[1,2-a]pyridin-7-ylmethyl)urea] | 2.76 nM
4 | C/C=C(\C)C(=O)N1CCC(c2ccc(NC(=O)NCc3ccn4ccnc4c3)cc2)CC1 [Example 955, 1-(imidazo[1,2-a]pyridin-7-ylmethyl)-3-(4-{1-[(2E)-2-methylbut-2-enoyl]piperidin-4-yl}phenyl)urea] | 2.56 nM
5 | O=C(NCc1ccn2ccnc2c1)Nc1ccc(C2CCN(C(=O)Cc3c[nH]c4ccccc34)CC2)cc1 [Example 956, 1-(imidazo[1,2-a]pyridin-7-ylmethyl)-3-{4-[1-(1H-indol-3-ylacetyl)piperidin-4-yl]phenyl}urea] | 8.83 nM
6 | Cc1cccc(C(=O)N2CCC(c3ccc(NC(=O)NCc4ccn5ccnc5c4)cc3)CC2)c1O [Example 957, 1-{4-[1-(2-hydroxy-3-methylbenzoyl)piperidin-4-yl]phenyl}-3-(imidazo[1,2-a]pyridin-7-ylmethyl)urea] | 3.51 nM
7 | O=C(NCc1ccn2ccnc2c1)c1ccc(C2CCN(C(=O)N3CCCC3)CC2)cc1 [Example 958, N-(imidazo[1,2-a]pyridin-7-ylmethyl)-4-[1-(pyrrolidin-1-ylcarbonyl)piperidin-4-yl]benzamide] | 21.4 nM
8 | CC(C)n1ccc(C(=O)N2CCC(c3ccc(C(=O)NCc4ccn5ccnc5c4)cc3)CC2)n1 [Example 959, N-(imidazo[1,2-a]pyridin-7-ylmethyl)-4-(1-{[1-(propan-2-yl)-1H-pyrazol-3-yl]carbonyl}piperidin-4-yl)benzamide] | 9.76 nM
9 | Cn1nc(C2CC2)cc1C(=O)N1CCC(c2ccc(C(=O)NCc3ccn4ccnc4c3)cc2)CC1 [Example 960, 4-{1-[(3-cyclopropyl-1-methyl-1H-pyrazol-5-yl)carbonyl]piperidin-4-yl}-N-(imidazo[1,2-a]pyridin-7-ylmethyl)benzamide] | 6.13 nM
10 | Cn1nc2c(c1C(=O)N1CCC(c3ccc(C(=O)NCc4ccn5ccnc5c4)cc3)CC1)CCCC2 [Example 961, N-(imidazo[1,2-a]pyridin-7-ylmethyl)-4-{1-[(2-methyl-4,5,6,7-tetrahydro-2H-indazol-3-yl)carbonyl]piperidin-4-yl}benzamide] | 8.94 nM
11 | O=C(NCc1ccn2ccnc2c1)c1ccc(C2CCN(C(=O)c3onc4c3CCCC4)CC2)cc1 [Example 962, N-(imidazo[1,2-a]pyridin-7-ylmethyl)-4-[1-(4,5,6,7-tetrahydro-2,1-benzoxazol-3-ylcarbonyl)piperidin-4-yl]benzamide] | 16.1 nM
12 | Cc1ccc(F)c(C(=O)N2CCC(c3ccc(C(=O)NCc4ccn5ccnc5c4)cc3)CC2)n1 [Example 963, 4-{1-[(3-fluoro-6-methylpyridin-2-yl)carbonyl]piperidin-4-yl}-N-(imidazo[1,2-a]pyridin-7-ylmethyl)benzamide] | 19.5 nM
13 | O=C(NCc1ccn2ccnc2c1)c1ccc(C2CCN(C(=O)c3ccnc(Cl)c3F)CC2)cc1 [Example 964, 4-{1-[(2-chloro-3-fluoropyridin-4-yl)carbonyl]piperidin-4-yl}-N-(imidazo[1,2-a]pyridin-7-ylmethyl)benzamide] | 6.22 nM
14 | O=C(NCc1ccn2ccnc2c1)c1ccc(C2CCN(C(=O)c3ncccc3Cl)CC2)cc1 [Example 965, 4-{1-[(3-chloropyridin-2-yl)carbonyl]piperidin-4-yl}-N-(imidazo[1,2-a]pyridin-7-ylmethyl)benzamide] | 8.31 nM
15 | O=C(NCc1ccn2ccnc2c1)c1ccc(C2CCN(C(=O)C3(c4ccccn4)CC3)CC2)cc1 [Example 966, N-(imidazo[1,2-a]pyridin-7-ylmethyl)-4-(1-{[1-(pyridin-2-yl)cyclopropyl]carbonyl}piperidin-4-yl)benzamide] | 2.09 nM
16 | O=C(NCc1ccn2ccnc2c1)c1ccc(C2CCN(C(=O)c3ccn(C4CCCC4)n3)CC2)cc1 [Example 967, 4-{1-[(1-cyclopentyl-1H-pyrazol-3-yl)carbonyl]piperidin-4-yl}-N-(imidazo[1,2-a]pyridin-7-ylmethyl)benzamide] | 3.96 nM
17 | CC(Oc1cccc(F)c1)C(=O)N1CCC(c2ccc(C(=O)NCc3ccn4ccnc4c3)cc2)CC1 (stereo not shown) [Example 968, 4-{1-[2-(3-fluorophenoxy)propanoyl]piperidin-4-yl}-N-(imidazo[1,2-a]pyridin-7-ylmethyl)benzamide] | 1.77 nM

Row | Structure (SMILES) | IC50
18 | O=C(NCc1ccn2ccnc2c1)c1ccc(C2CCN(C(=O)c3ccnn3C(F)F)CC2)cc1 [Example 969, 4-(1-{[1-(difluoromethyl)-1H-pyrazol-5-yl]carbonyl}piperidin-4-yl)-N-(imidazo[1,2-a]pyridin-7-ylmethyl)benzamide] | 6.36 nM
19 | O=C(NCc1ccn2ccnc2c1)c1ccc(C2CCN(C(=O)c3ccc4c(c3)CCCO4)CC2)cc1 [Example 970, 4-[1-(3,4-dihydro-2H-chromen-6-ylcarbonyl)piperidin-4-yl]-N-(imidazo[1,2-a]pyridin-7-ylmethyl)benzamide] | 10.9 nM
20 | O=C(NCc1ccn2ccnc2c1)c1ccc(C2CCN(C(=O)COC3CCCCC3)CC2)cc1 [Example 971, 4-{1-[(cyclohexyloxy)acetyl]piperidin-4-yl}-N-(imidazo[1,2-a]pyridin-7-ylmethyl)benzamide] | 22.6 nM
21 | O=C(NCc1ccn2ccnc2c1)c1ccc(C2CCN(C(=O)Cc3cccnc3Cl)CC2)cc1 [Example 972, 4-{1-[(2-chloropyridin-3-yl)acetyl]piperidin-4-yl}-N-(imidazo[1,2-a]pyridin-7-ylmethyl)benzamide] | 28.9 nM
22 | O=C(NCc1ccn2ccnc2c1)c1ccc(C2CCN(C(=O)c3cc(C4CC4)on3)CC2)cc1 [Example 973, 4-{1-[(5-cyclopropyl-1,2-oxazol-3-yl)carbonyl]piperidin-4-yl}-N-(imidazo[1,2-a]pyridin-7-ylmethyl)benzamide] | 21.8 nM
23 | O=C(NCc1ccn2ccnc2c1)c1ccc(C2CCN(C(=O)C3=Cc4ccccc4OC3)CC2)cc1 [Example 974, 4-[1-(2H-chromen-3-ylcarbonyl)piperidin-4-yl]-N-(imidazo[1,2-a]pyridin-7-ylmethyl)benzamide] | 28.7 nM
24 | O=C(NCc1ccn2ccnc2c1)c1ccc(C2CCN(C(=O)c3ncc(F)cc3F)CC2)cc1 [Example 975, 4-{1-[(3,5-difluoropyridin-2-yl)carbonyl]piperidin-4-yl}-N-(imidazo[1,2-a]pyridin-7-ylmethyl)benzamide] | 50.3 nM
25 | O=C(NCc1ccn2ccnc2c1)c1ccc(C2CCN(C(=O)C3COc4ccccc4O3)CC2)cc1 (stereo not shown) [Example 976, 4-[1-(2,3-dihydro-1,4-benzodioxin-2-ylcarbonyl)piperidin-4-yl]-N-(imidazo[1,2-a]pyridin-7-ylmethyl)benzamide] | 34.9 nM
26 | COC1CCC(C(=O)N2CCC(c3ccc(C(=O)NCc4ccn5ccnc5c4)cc3)CC2)CC1 (stereo not shown) [Example 977, N-(imidazo[1,2-a]pyridin-7-ylmethyl)-4-{1-[(4-methoxycyclohexyl)carbonyl]piperidin-4-yl}benzamide] | 2.65 nM
27 | O=C(NCc1ccn2ccnc2c1)c1ccc(C2CCN(C(=O)c3cccc4c3OCCO4)CC2)cc1 [Example 978, 4-[1-(2,3-dihydro-1,4-benzodioxin-5-ylcarbonyl)piperidin-4-yl]-N-(imidazo[1,2-a]pyridin-7-ylmethyl)benzamide] | 2.02 nM
28 | O=C(NCc1ccn2ccnc2c1)c1ccc(C2CCN(C(=O)c3cncc4ccccc34)CC2)cc1 [Example 979, N-(imidazo[1,2-a]pyridin-7-ylmethyl)-4-[1-(isoquinolin-4-ylcarbonyl)piperidin-4-yl]benzamide] | 75.7 nM
29 | Cc1nc2ccc(C(=O)N3CCC(c4ccc(C(=O)NCc5ccn6ccnc6c5)cc4)CC3)cc2o1 [Example 980, N-(imidazo[1,2-a]pyridin-7-ylmethyl)-4-{1-[(2-methyl-1,3-benzoxazol-6-yl)carbonyl]piperidin-4-yl}benzamide] | 29.4 nM
30 | Cc1cc(C(=O)N2CCC(c3ccc(C(=O)NCc4ccn5ccnc5c4)cc3)CC2)n(C(C)(C)C)n1 [Example 981, 4-{1-[(1-tert-butyl-3-methyl-1H-pyrazol-5-yl)carbonyl]piperidin-4-yl}-N-(imidazo[1,2-a]pyridin-7-ylmethyl)benzamide] | 6.54 nM
31 | N#CC1(C(=O)N2CCC(c3ccc(C(=O)NCc4ccn5ccnc5c4)cc3)CC2)CCCC1 [Example 982, 4-{1-[(1-cyanocyclopentyl)carbonyl]piperidin-4-yl}-N-(imidazo[1,2-a]pyridin-7-ylmethyl)benzamide] | 100 nM
32 | O=C(NCc1ccn2ccnc2c1)c1ccc(C2CCN(C(=O)c3cc4ncccc4s3)CC2)cc1 [Example 983, N-(imidazo[1,2-a]pyridin-7-ylmethyl)-4-[1-(thieno[3,2-b]pyridin-2-ylcarbonyl)piperidin-4-yl]benzamide] | 724 nM
33 | O=C(NCc1ccn2ccnc2c1)c1ccc(C2CCN(C(=O)c3ccc4cccnc4c3)CC2)cc1 [Example 984, N-(imidazo[1,2-a]pyridin-7-ylmethyl)-4-[1-(quinolin-7-ylcarbonyl)piperidin-4-yl]benzamide] | 55.4 nM
34 | N#Cc1ccc(F)c(C(=O)N2CCC(c3ccc(C(=O)NCc4ccn5ccnc5c4)cc3)CC2)c1 [Example 985, 4-[1-(5-cyano-2-fluorobenzoyl)piperidin-4-yl]-N-(imidazo[1,2-a]pyridin-7-ylmethyl)benzamide] | 28.3 nM
